In PubChem BioAssay AID248 (DTP/NCI, 2004):
“And” between values parts separate entries of the source, which are not always exact repeats. Equal values may be shown once. Toxic doses and inconclusive results are not listed. Cut-off read from the data, not from the text of the source: active = T/C of 150% or more; inactive = T/C below 125%.

Test system: L1210 leukemia ip in BDF1 mice, survival T/C
Assay: NCI In Vivo Anticancer Drug Screen. Data for tumor model L1210 Leukemia (intraperitoneal) in B6D2F1 (BDF1) mice
Details: endpoint: mean survival time, higher = longer survival
Procedure, shortened: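 Antitumor effect is assessed in tumor-bearing animals. Survival in the compound arm is compared with a vehicle-dosed control arm and expressed as their quotient.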

[1] = dose: 100.0 mg/kg/injection, schedule: Q04DX003 (ip), vehicle: saline with Tween-80
[2] = dose: 200.0 mg/kg/injection, schedule: Q04DX003 (ip), vehicle: saline with Tween-80
[3] = dose: 400.0 mg/kg/injection, schedule: Q04DX003 (ip), vehicle: saline with Tween-80

Measured: T/C

COc1ccc(NC(=S)Nc2ccccc2)cc1
inactive: dose: 100.0 mg/kg/injection, schedule: Q04DX002 (ip), vehicle: saline with Tween-80 101 % of control | dose: 200.0 mg/kg/injection, schedule: Q04DX002 (ip), vehicle: saline with Tween-80 108 % of control | dose: 400.0 mg/kg/injection, schedule: Q04DX002 (ip), vehicle: saline with Tween-80 108 % of control

O=C1OC(=O)C(Br)C1Br (stereo not drawn)
inactive: dose: 1.56 mg/kg/injection, schedule: Q04DX003 (ip), vehicle: saline 106 % of control | dose: 3.12 mg/kg/injection, schedule: Q04DX003 (ip), vehicle: saline 106 % of control | dose: 6.25 mg/kg/injection, schedule: Q04DX003 (ip), vehicle: saline 95 % of control | dose: 12.5 mg/kg/injection, schedule: Q04DX003 (ip), vehicle: saline 108 % of control | dose: 25.0 mg/kg/injection, schedule: Q04DX003 (ip), vehicle: saline 87 % of control

CCNC(=O)N(O)C1(C#N)CCCCC1
inactive: dose: 100.0 mg/kg/injection, schedule: Q01DX001 (ip), vehicle: other 98 % of control | dose: 200.0 mg/kg/injection, schedule: Q01DX001 (ip), vehicle: other 96 % of control | dose: 400.0 mg/kg/injection, schedule: Q01DX001 (ip), vehicle: other 98 % of control

Cc1cc(=O)[nH]c2ccccc12
inactive: [1] 91 % of control | [2] 95 % of control

N#Cc1ccc(S(=O)(=O)Cl)cc1
inactive: dose: 25.0 mg/kg/injection, schedule: Q04DX003 (ip), vehicle: Klucel (hydroxypropylcellulose) (HPC) 95 % of control | dose: 50.0 mg/kg/injection, schedule: Q04DX003 (ip), vehicle: Klucel (hydroxypropylcellulose) (HPC) 100 % of control | dose: 100.0 mg/kg/injection, schedule: Q04DX003 (ip), vehicle: Klucel (hydroxypropylcellulose) (HPC) 93 % of control and 91 % of control

Cc1cc(N(C)c2ccccc2)nc(N)n1
inactive: dose: 25.0 mg/kg/injection, schedule: Q01DX Z (ip), vehicle: methylcellulose (MC) 96 % of control

CCCCCCCCCCCCCCCC(CCCCCCCC)CCCCCCCC
inactive: dose: 75.0 mg/kg/injection, schedule: Q01DX001 (ip), vehicle: saline with Tween-80 97 % of control | dose: 150.0 mg/kg/injection, schedule: Q01DX001 (ip), vehicle: saline with Tween-80 110 % of control | dose: 300.0 mg/kg/injection, schedule: Q01DX001 (ip), vehicle: saline with Tween-80 95 % of control

CCOC(=O)C(C=O)(NC(=O)c1ccccc1)OCC (stereo not drawn)
inactive: [1] 94 % of control | [2] 101 % of control | [3] 105 % of control

BrC1(Br)C2C3C=CC4C(C=C3)C4C21 (stereo not drawn)
inactive: dose: 50.0 mg/kg/injection, schedule: Q01DX001 (ip), vehicle: Klucel (hydroxypropylcellulose) (HPC) 105 % of control | dose: 100.0 mg/kg/injection, schedule: Q01DX001 (ip), vehicle: Klucel (hydroxypropylcellulose) (HPC) 103 % of control | dose: 200.0 mg/kg/injection, schedule: Q01DX001 (ip), vehicle: Klucel (hydroxypropylcellulose) (HPC) 108 % of control

N#Cc1cn(C2OC(CO)C(O)C2O)c2ncnc([Se]Cc3ccc([N+](=O)[O-])cc3)c12 (stereo not drawn)
inactive: dose: 3.12 mg/kg/injection, schedule: Q01DX005 (ip), vehicle: saline 109 % of control | dose: 6.25 mg/kg/injection, schedule: Q01DX005 (ip), vehicle: saline 106 % of control | dose: 12.5 mg/kg/injection, schedule: Q01DX005 (ip), vehicle: saline 102 % of control

Nc1ccc(-c2ccc(N)cc2Br)c(Br)c1
inactive: dose: 100.0 mg/kg/injection, schedule: Q01DX009 (ip), vehicle: saline with Tween-80 99 % of control | [1] 95 % of control | dose: 200.0 mg/kg/injection, schedule: Q01DX009 (ip), vehicle: saline with Tween-80 105 % of control | [2] 97 % of control | dose: 400.0 mg/kg/injection, schedule: Q01DX009 (ip), vehicle: saline with Tween-80 88 % of control | [3] 92 % of control

CCCCCCCCCCCCCCCCC1CCCC2(CCCC2)C1 (stereo not drawn)
inactive: dose: 100.0 mg/kg/injection, schedule: Q01DX001 (ip), vehicle: saline with Tween-80 103 % of control | dose: 200.0 mg/kg/injection, schedule: Q01DX001 (ip), vehicle: saline with Tween-80 92 % of control | dose: 400.0 mg/kg/injection, schedule: Q01DX001 (ip), vehicle: saline with Tween-80 101 % of control
